Assay results taken from publication PMC6557261 (Cell chemical biology, 2019).
pIC50: −log10 of the molar value.

Tests used:
[1] = target: T1, peroxiredoxin 1 (Prx1) (Homo sapiens, UniProt Q06830); experiment: glutamine synthetase protection assay with recombinant Prx1; format: biochemical
T1 sequence (Q06830 2-199): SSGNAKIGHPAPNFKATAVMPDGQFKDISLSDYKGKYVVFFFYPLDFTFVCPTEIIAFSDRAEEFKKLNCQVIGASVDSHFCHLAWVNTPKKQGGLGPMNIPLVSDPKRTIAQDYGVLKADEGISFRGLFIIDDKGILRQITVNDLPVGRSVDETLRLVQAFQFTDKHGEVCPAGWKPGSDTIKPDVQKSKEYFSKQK

[2] = target: T2, peroxiredoxin 2 (Prx2) (Homo sapiens, UniProt P32119); experiment: glutamine synthetase protection assay with recombinant Prx2; format: biochemical
T2 sequence (P32119 2-198): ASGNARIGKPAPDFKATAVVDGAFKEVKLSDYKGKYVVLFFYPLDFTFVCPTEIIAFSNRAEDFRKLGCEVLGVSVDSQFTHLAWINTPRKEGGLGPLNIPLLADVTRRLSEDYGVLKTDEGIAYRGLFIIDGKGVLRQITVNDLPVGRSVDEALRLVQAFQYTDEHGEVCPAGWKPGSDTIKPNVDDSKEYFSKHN

pIC50 [1]: 6.70
pIC50 [2]: 5.38
Compound: CCC[C@H]1O[C@@H]2CC(=O)O[C@@H]2C2=C1C(=O)c1c(O)cccc1C2=O [FB, frenolicin B]
